Values of other authors in article PMC4315033, “The regulation of muscle mass by endogenous glucocorticoids” (Frontiers in Physiology, 2015).

How the values were obtained:
[1] = system: mineralocorticoid receptor; design: method as in Chapman et al., 2013; details: ref Chapman et al., 2013
[2] = system: GR
[3] = system: cultured myotubes; design: method as in Biedasek et al., 2011; details: ref Biedasek et al., 2011
[4] = system: MAFbx and MuRF1; design: method as in Frost et al., 2007; details: adult rats, ref Frost et al., 2007
[5] = system: muscle explants; design: method as in Tiao et al., 1996; details: juvenile rats, explants harvested 16 h after CLP; ref Tiao et al., 1996
[6] = system: MAFbx, MuRF1, and Foxo1; design: method as in Braun et al., 2011; details: inflammatory cytokines delivered directly into the brain; ref Braun et al., 2011
[7] = system: other steroid receptors
[8] = system: muscle wasting; design: method as in Song et al., 2005; details: angiotensin II infused at concentrations mimicking endogenous production in CKD, co-administration; ref Song et al., 2005
[9] = system: muscle protein breakdown; design: method as in Zamir et al., 1992; details: ref Zamir et al., 1992
[10] = system: TRAF6; design: method as in Sun et al., 2014; details: pharmacologic doses; ref Sun et al., 2014
[11] = system: miR27a and b; design: method as in Allen and Loh, 2011; details: ref Allen and Loh, 2011
[12] = system: cultured myotubes; design: method as in Lokireddy et al., 2012; details: ref Lokireddy et al., 2012
[13] = system: muscle atrophy; design: method as in Hu et al., 2009; details: ref Hu et al., 2009
[14] = system: GR^dim mice; design: method as in Reichardt et al., 1998; Tuckermann et al., 1999; details: ref Reichardt et al., 1998, Tuckermann et al., 1999

For C[C@]12CCC(=O)C=C1CC[C@@H]1[C@@H]2[C@@H](O)C[C@@]2(C)[C@H]1CC[C@]2(O)C(=O)CO [Cortisol], the “affinity for mineralocorticoid receptor relative to GR” value [1] is listed as “higher affinity”.

In the case of C[C@]12CCC(=O)C=C1CC[C@@H]1[C@@H]2C(=O)C[C@@]2(C)[C@H]1CC[C@]2(O)C(=O)CO [cortisone], the “binding to the GR” value [2] is listed as “does not bind” and the “proteolysis and atrophy in cultured myotubes” value [3] is listed as “capable of inducing”.

For CC#C[C@]1(O)CC[C@H]2[C@@H]3CCC4=CC(=O)CCC4=C3[C@@H](c3ccc(N(C)C)cc3)C[C@@]21C [mifepristone], the “induction of MAFbx and MuRF1 in septic rats” value ([4]; CLP, 24 h) is listed as “failed to alter”, the “induction of MAFbx and MuRF1 by dexamethasone” value ([4]; similar time point) is listed as “effectively blocking” and the “tyrosine release from muscle explants” value [5] is listed as “significantly reduced”. For the same compound, the “half-life (in words)” value (in vivo) was “very short”, the half-life (rodents, ref Heikinheimo et al., 1994) was 1 to 2 h and the “induction of MAFbx, MuRF1, and Foxo1 in muscle” value [6] was “blocked”. For the same compound, the “activity at other steroid receptors” value [7] was “has activity”, the “angiotensin II induced muscle wasting” value [8] was “reversed” and the mortality ([9]; concurrent cytokine and mifepristone administration) was roughly 50%. For the same compound, the “induction of muscle protein degradation brought about by tumor necrosis factor (TNF)” value ([9]; concurrent mifepristone) was “attenuates” and the “proteolysis accompanied by interleukin-1 α administration” value ([9]; concurrent mifepristone) was “not blocked”.

In the case of C[C@@H]1C[C@H]2[C@@H]3CCC4=CC(=O)C=C[C@]4(C)[C@@]3(F)[C@@H](O)C[C@]2(C)[C@@]1(O)C(=O)CO [dexamethasone], the TRAF6 expression [10] is given as “increase”, the “levels of miR27a and b in skeletal muscle” value [11] is given as “decrease” and the Mul1 expression [12] is given as “induces”. For the same compound, the mitophagy [12] was “induces”, the “muscle atrophy, given in isolation” value ([13]; dose estimated to mimic endogenous concentrations in diabetic animals) was “insufficient to evoke substantial atrophy” and the “muscle atrophy in diabetic adrenalectomized mice” value ([13]; same dose, streptozotocin-induced diabetes) was “restores normal muscle atrophy”. For the same compound, the PMA-induced skin inflammation [14] was “continued to suppress” and the “expression of genes regulating carbohydrate balance” value [14] was “failed to alter”.
